Reference: DBAASP
Values after ≈ are worked out from the molar mass of the structure shown.

Experiments:
Experiment in all cases: ≥ marks a high value that may be exact or a test limit, other limits are often not marked, values filed in µg/mL are converted to µM
[1] = tested on: Pseudomonas aeruginosa H1001
[2] = tested on: Escherichia coli DH5alpha
[3] = tested on: Micrococcus luteus ATCC 4698
[4] = tested on: Staphylococcus aureus ATCC 6538
[5] = tested on: Staphylococcus epidermidis ATCC 12228
[6] = tested on: Bacillus subtilis ATCC 6633
[7] = tested on: Escherichia coli ATCC 8739
[8] = tested on: Staphylococcus aureus ATCC 43300
[9] = tested on: Acinetobacter baumannii ATCC 19606
Acinetobacter baumannii = tested on: Acinetobacter baumannii
[10] = tested on: Escherichia coli ATCC 25922
Escherichia coli = tested on: Escherichia coli
[11] = tested on: Klebsiella pneumoniae ATCC 13883
Klebsiella pneumoniae = tested on: Klebsiella pneumoniae
[12] = tested on: Pseudomonas aeruginosa ATCC 27853
Pseudomonas aeruginosa = tested on: Pseudomonas aeruginosa
[13] = tested on: Staphylococcus aureus ATCC 29213
Staphylococcus aureus MR = tested on: Staphylococcus aureus MR
Staphylococcus aureus = tested on: Staphylococcus aureus
[14] = tested on: Candida albicans ATCC 90028
Bacillus cereus AS1.126 = tested on: Bacillus cereus AS1.126
[15] = tested on: Enterococcus faecalis CGMCC 1.595
[16] = tested on: Enterococcus faecium CGMCC 1.2334
Escherichia coli AS1.349 = tested on: Escherichia coli AS1.349
[17] = tested on: Lactococcus lactis AS1.1690
[18] = tested on: Pseudomonas aeruginosa CGMCC 1.860
[19] = tested on: Staphylococcus aureus AS1.72

In the case of `CC[C@H](C)[C@H](NC(=O)[C@H](C)N)C(=O)N[C@@H](CCCCN)C(=O)N[C@@H](CC(C)C)C(=O)N[C@@H](CC(C)C)C(=O)N[C@@H](CS)C(=O)N[C@@H](CCCN=C(N)N)C(=O)N[C@H](C(=O)N[C@@H](Cc1cnc[nH]1)C(=O)N[C@@H](CCCCN)C(=O)O)C(C)C` [AIKLLCRVHK], the MIC [1] is reported as at least 42.4 µM.
In the case of `CC[C@H](C)[C@H](NC(=O)[C@H](C)NC(=O)[C@@H](NC(=O)[C@H](CCCCN)NC(=O)[C@H](CCCCN)NC(=O)[C@H](Cc1cnc[nH]1)NC(=O)[C@@H](NC(=O)[C@H](CCCN=C(N)N)NC(=O)[C@@H](N)CS)C(C)C)[C@@H](C)CC)C(=O)N[C@@H](CO)C(=O)O` [CRVHKKIAIS], the MIC [1] is reported as at least 173 µM.
For `CC(C)C[C@H](NC(=O)[C@H](CC(C)C)NC(=O)[C@H](CCCCN)NC(=O)[C@H](CO)NC(=O)[C@H](CC(C)C)NC(=O)[C@H](C)NC(=O)[C@H](CCCCN)NC(=O)[C@H](C)NC(=O)[C@H](CC(C)C)NC(=O)[C@H](C)NC(=O)CNC(=O)[C@H](CC(C)C)NC(=O)[C@@H](N)Cc1ccccc1)C(=O)O` [FLGALAKALSKLL], the MIC [2] was at least 74.4 µM, the MIC [3] was 11.9 µM (≈ 16 µg/mL) and the MIC [4] was 20.8 µM (≈ 28 µg/mL). The MIC [5] was 35.7 µM (≈ 48 µg/mL).
For `CC(C)C[C@H](NC(=O)[C@@H](NC(=O)[C@H](CCCCN)NC(=O)[C@H](CO)NC(=O)[C@H](CC(C)C)NC(=O)[C@H](C)NC(=O)[C@H](CCCCN)NC(=O)[C@H](Cc1ccccc1)NC(=O)[C@H](CC(C)C)NC(=O)[C@H](C)NC(=O)CNC(=O)[C@H](CC(C)C)NC(=O)[C@@H](N)Cc1ccccc1)C(C)C)C(=O)O` [FLGALFKALSKVL], the MIC [2] was 28.4 µM (≈ 40 µg/mL), the MIC [3] was 5.69 µM (≈ 8 µg/mL) and the MIC [4] was 9.24 µM (≈ 13 µg/mL). It also gave an MIC [5] of 11.4 µM (≈ 16 µg/mL).
`CC(C)C[C@H](NC(=O)[C@@H](N)Cc1ccccc1)C(=O)N1CCC[C@H]1C(=O)N[C@@H](CCCCN)C(=O)N[C@@H](CCCCN)C(=O)N[C@@H](Cc1ccccc1)C(=O)N[C@@H](CCCN=C(N)N)C(=O)N[C@@H](Cc1c[nH]c2ccccc12)C(=O)N[C@@H](Cc1c[nH]c2ccccc12)C(=O)N[C@@H](CCCCN)C(=O)N[C@@H](Cc1ccc(O)cc1)C(=O)N[C@@H](CCCN=C(N)N)C(=O)N[C@@H](CCCCN)C(N)=O` [FLPKKFRWWKYRK] showed an MIC [1] of 8.5 µM (≈ 16 µg/mL).
`CC[C@H](C)[C@H](NC(=O)CN)C(=O)N[C@@H](Cc1ccccc1)C(=O)N[C@@H](CO)C(=O)N[C@@H](CCCCN)C(=O)N[C@@H](Cc1ccccc1)C(=O)N[C@@H](C)C(=O)NCC(=O)N[C@@H](CCCCN)C(=O)NCC(=O)N[C@H](C(=O)N[C@@H](CCCCN)C(=O)N[C@@H](CC(N)=O)C(=O)N[C@@H](CC(C)C)C(=O)N[C@@H](CC(C)C)C(=O)N[C@H](C(=O)N[C@@H](CCCCN)C(=O)NCC(=O)N[C@H](C(=O)N[C@@H](CCCCN)C(=O)N[C@@H](CC(N)=O)C(=O)N[C@H](C(=O)NCC(=O)N[C@@H](CCCCN)C(=O)N[C@@H](CCC(=O)O)C(=O)N[C@H](C(=O)NCC(=O)N[C@@H](CCSC)C(=O)N[C@@H](CC(=O)O)C(=O)N[C@H](C(=O)N[C@H](C(=O)N[C@@H](CCCN=C(N)N)C(=O)N[C@H](C(=O)NCC(=O)N[C@H](C(=O)N[C@@H](CC(=O)O)C(=O)N[C@H](C(=O)N[C@@H](C)C(=O)NCC(=O)N[C@H]1CSSC[C@@H](C(=O)O)NC(=O)[C@H](CCC(=O)O)NC(=O)CNC(=O)[C@H](CCCCN)NC(=O)[C@H]([C@@H](C)CC)NC(=O)[C@H](CCCCN)NC1=O)[C@@H](C)CC)[C@@H](C)CC)[C@@H](C)O)[C@@H](C)CC)C(C)C)C(C)C)[C@@H](C)CC)C(C)C)C(C)C)[C@@H](C)CC` [GIFSKFAGKGIKNLLVKGVKNIGKEVGMDVIRTGIDIAGCKIKGEC] showed an MIC [6] of 25 µM (≈ 120 µg/mL), an MIC [7] of 6.3 µM (≈ 30.3 µg/mL) and an MIC [8] of 25 µM (≈ 120 µg/mL). The MIC [4] was 3.1 µM (≈ 14.9 µg/mL).
`CC[C@H](C)[C@H](NC(=O)CN)C(=O)N[C@@H](CCCCN)C(=O)N[C@@H](CCCCN)C(=O)N[C@@H](Cc1c[nH]c2ccccc12)C(=O)N[C@H](C(=O)N[C@@H](CCCCN)C(=O)NCC(=O)N[C@H](C(=O)N[C@@H](C)C(=O)N[C@@H](CCCCN)C(=O)NCC(=O)N[C@H](C(=O)N[C@@H](C)C(=O)N[C@@H](CCCCN)C(=O)N[C@@H](CC(=O)O)C(=O)N[C@@H](CC(C)C)C(=O)N[C@@H](C)C(=O)N[C@@H](CCCCN)C(=O)N[C@@H](CCCCN)C(=O)N[C@H](C(=O)N[C@@H](CC(C)C)C(N)=O)[C@@H](C)CC)C(C)C)C(C)C)C(C)C` [GIKKWVKGVAKGVAKDLAKKIL] was tested, and the MIC [9] was 0.707 µM (≈ 1.66 µg/mL), the MIC (Acinetobacter baumannii) was 0.707 µM (≈ 1.66 µg/mL) and the MIC [10] was 0.177 µM (≈ 0.415 µg/mL). For the same compound, the MIC (Escherichia coli) was 0.25 µM (≈ 0.587 µg/mL), the MIC [11] was 0.707 µM (≈ 1.66 µg/mL) and the MIC (Klebsiella pneumoniae) was 2.83 µM (≈ 6.65 µg/mL). The MIC [12] was 2 µM (≈ 4.7 µg/mL), the MIC (Pseudomonas aeruginosa) was 2.83 µM (≈ 6.65 µg/mL) and the MIC [13] was 0.354 µM (≈ 0.831 µg/mL). For the same compound, the MIC (Staphylococcus aureus MR) was 4 µM (≈ 9.4 µg/mL) and the MIC (Staphylococcus aureus) was 1 µM (≈ 2.35 µg/mL).
`CC[C@H](C)[C@H](NC(=O)CN)C(=O)N[C@@H](CC(C)C)C(=O)N[C@@H](CO)C(=O)N[C@H](C(=O)N[C@H](C(=O)N[C@@H](Cc1ccccc1)C(=O)N[C@@H](CCCCN)C(=O)N[C@@H](C)C(=O)NCC(=O)N[C@@H](CCCCN)C(=O)NCC(=O)N[C@H](C(=O)N[C@H](C(=O)N[C@H]1CSSC[C@@H](C(=O)O)NC(=O)[C@H](CC(C)C)NC(=O)CNC(=O)[C@H](CO)NC(=O)[C@H](CC(C)C)NC(=O)CNC1=O)C(C)C)[C@@H](C)CC)C(C)C)[C@@H](C)O` [GILSTVFKAGKGIVCGLSGLC] showed an MIC [6] of 12.5 µM (≈ 25.3 µg/mL), an MIC [14] of at least 100 µM and an MIC [7] of at least 50 µM. For the same compound, the MIC [8] was 25 µM (≈ 50.5 µg/mL) and the MIC [4] was 3.1 µM (≈ 6.27 µg/mL).
`CC[C@H](C)[C@H](NC(=O)[C@H](CCSC)NC(=O)[C@H](Cc1c[nH]c2ccccc12)NC(=O)[C@H](Cc1c[nH]c2ccccc12)NC(=O)[C@H](CC(C)C)NC(=O)[C@@H](N)CCCCN)C(=O)N[C@@H](CCCN=C(N)N)C(=O)N[C@@H](CCCN=C(N)N)C(=O)N[C@@H](Cc1c[nH]c2ccccc12)C(=O)O` [KLWWMIRRW] showed an MIC [1] of 5.82 µM (≈ 8 µg/mL).
With `CC(C)C[C@@H]1NC(=O)[C@H](CCCN=C(N)N)NC(=O)[C@H](Cc2cnc[nH]2)NC(=O)[C@H](Cc2c[nH]c3ccccc23)NC(=O)CNC(=O)CNC(=O)[C@@H](NC(=O)[C@H](Cc2ccc(O)cc2)NC(=O)CNC(=O)CNC(=O)[C@@H](N)CO)CSSC[C@@H](C(=O)O)NC(=O)[C@H](CCCN=C(N)N)NC1=O` [SGGYCGGWHRLRC] the MIC [3] was 17 µM (≈ 24.6 µg/mL).
In the case of `C[C@@H](O)[C@H](NC(=O)[C@@H]1CSSC[C@H](NC(=O)[C@H](Cc2ccc(O)cc2)NC(=O)CNC(=O)CNC(=O)[C@@H](N)CO)C(=O)NCC(=O)NCC(=O)N[C@@H](Cc2c[nH]c3ccccc23)C(=O)N[C@@H](CCCCN)C(=O)N[C@@H](CCCN=C(N)N)C(=O)N[C@@H](CCCCN)C(=O)N[C@@H](CCCN=C(N)N)C(=O)N1)C(=O)N[C@@H](CO)C(=O)N[C@@H](Cc1ccc(O)cc1)C(=O)N[C@@H](CCCN=C(N)N)C(=O)N[C@@H](CO)C(=O)NCC(=O)O` [SGGYCGGWKRKRCTSYRSG], the MIC [3] is reported as 12 µM (≈ 25.3 µg/mL).
`CC[C@H](C)[C@H](NC(=O)[C@H](CCCN=C(N)N)NC(=O)[C@H](CCCN=C(N)N)NC(=O)[C@@H]1CCCN1C(=O)[C@@H]1CCCN1C(=O)[C@H](CCCN=C(N)N)NC(=O)[C@@H]1CCCN1C(=O)[C@H](CCCN=C(N)N)NC(=O)[C@@H]1CCCN1C(=O)[C@H](CC(C)C)NC(=O)[C@H](Cc1ccc(O)cc1)NC(=O)[C@@H]1CCCN1C(=O)[C@@H]1CCCN1C(=O)[C@H](CCCCN)NC(=O)[C@H](CCCN=C(N)N)NC(=O)[C@@H](N)C(C)C)C(=O)N[C@@H](Cc1ccc(O)cc1)C(=O)N[C@@H](CC(N)=O)C(=O)N[C@@H](CCCN=C(N)N)C(=O)NCC(=O)O` [VRKPPYLPRPRPPRRIYNRG] gave an MIC [1] of 0.0362 µM (≈ 0.0901 µg/mL).
`CC(C)[C@H](N)C(=O)N[C@@H](Cc1c[nH]c2ccccc12)C(=O)N[C@@H](CCCN=C(N)N)C(=O)N[C@@H](Cc1cnc[nH]1)C(=O)N[C@@H](Cc1c[nH]c2ccccc12)C(=O)O` [VWRHW] showed an MIC (Bacillus cereus AS1.126) of at least 100 µM, an MIC [15] of at least 100 µM and an MIC [16] of at least 100 µM. It also gave an MIC (Escherichia coli AS1.349) of at least 100 µM, an MIC [17] of at least 100 µM and an MIC [18] of at least 100 µM. For the same compound, the MIC [19] was at least 100 µM.
